In patent EP2924021A1, “ANTI-HIV COMPOUND AND PREPARATION METHOD AND USE THEREOF” (priority 2012, dated 2014):
In brackets after ≈: the same amount, converted by molar mass. Several values for one entry are separate records, joined by “and”; a condition that tells them apart may be missing. Equal values may be shown once. Read-outs that look alike come from different tables or passages of the source.

Columns and labels:
H9 cells = test: Cytotoxicity in H9 cells (CC50); type: cell-based, human; conditions: measured twice, average
Procedure: (§1) The anti-HIV activity was determined by the "Guiding Principles of Anti HIV Drug Unclinical Pharmacodynamics" of SFDA which is tested by technology standard assay according to International Universal Standards and Methods. Where in CC50, EC50 were measured twice and took the average.

HIV-1IIIB(H9 cells) = test: Anti-HIV activity in H9 cells; type: cell-based; conditions: for TI: TI(CC50/EC50)
Procedure: as §1

C8166 cells = test: Cytotoxicity in C8166 cells (CC50); type: cell-based, human; conditions: measured twice, average
Procedure: as §1

HIV-1IIIB (C8166 cells) = test: Anti-HIV activity in C8166 cells; type: cell-based; conditions: for TI: TI(CC50/EC50)
Procedure: as §1

HIVKM018 = conditions: HIVKM018, clinical strain
Procedure: as §1

Acute toxicity test = type: in vivo; conditions: for safety at a high dose: high dose (10g/kg); for acute toxicity test: in vivo
HIV-1A17 = conditions: HIV-1A17, NVP resistant
Procedure: as §1

HIV-1TC-1 = conditions: HIV-1TC-1, clinical strain
Procedure: as §1

HIV-2 ROD = test: Anti-HIV-2 activity and cytotoxicity; type: cell-based
[1] = Pharmacokinetics: metabolism of 67 to 46, blood concentration and bioavailability; type: in vivo; conditions: after oral gavage of 67 by 100mg/kg
HIV-2 CBL-20 = test: Anti-HIV-2 activity and cytotoxicity; type: cell-based
[2] = H9 cells, HIV-1IIIB, measured twice, average
[3] = Human immunodeficiency virus 1, H9 cells, HIV-1IIIB, measured twice, average, read-out: EC50
[4] = Human immunodeficiency virus 1, C8166 cells, HIV-1IIIB, measured twice, average, read-out: EC50

Row | Compound | EC50 (HIV-1IIIB(H9 cells); [3]) [µg/mL] | EC50 (HIV-1IIIB (C8166 cells); [4]) [µg/mL] | further results
1 | 5-(dimethylamino)-N-(2-methoxyphenyl)-2-((4-nitrophenyl)thio)benzamide [compound 28] | – | – | CC50 (H9 cells): 77.23 µg/mL; EC50 (HIV-1IIIB(H9 cells); [2]): 98.45 µg/mL; CC50 (C8166 cells): 93.04 µg/mL; EC50 (HIV-1IIIB (C8166 cells); C8166 cells, HIV-1IIIB, measured twice, average): 83.84 µg/mL
2 | COc1ccccc1NC(=O)c1cc(C(F)(F)F)ccc1Sc1ccc([N+](=O)[O-])cc1 [compound 22, N-(2-methoxyphenyl)-2-((4-nitrophenyl)thio)-5-(trifluoromethyl)benzamide] | > 200 | > 200 | –
3 | COc1ccccc1NC(=O)c1cc(N)ccc1Sc1ccc([N+](=O)[O-])cc1 [compound 24, 5-amino-N-(2-methoxyphenyl)-2-((4-nitrophenyl)thio)benzamide] | 2.62 (≈ 6.63 µM) | 2.59 (≈ 6.55 µM) | –
4 | COc1ccccc1NC(=O)c1c(N)cccc1S(=O)(=O)c1ccc([N+](=O)[O-])cc1 [compound 46, 2-amino-N-(2-methoxyphenyl)-6-((4-nitroph-enyl)sulfonyl)benzamide] | – | – | TI (HIV-1IIIB(H9 cells); H9 cells): >303.03; TI(CC50/EC50) (HIVKM018): >31.65; safety at a high dose (Acute toxicity test): very safe; acute toxicity test (Acute toxicity test): no abnormal phenomenon occurred; TI(CC50/EC50) (HIV-1A17): >20; TI(CC50/EC50) (HIV-1TC-1): >1818.18; TI (HIV-1IIIB (C8166 cells); C8166 cells): 2081.59 and 2018.59
5 | COc1ccccc1NC(=O)c1c(N)cccc1Oc1ccc([N+](=O)[O-])cc1 [compound 48, 2-amino-N-(2-methoxyphenyl)-6-(4-nitrop-henoxy)benzamide] | – | – | EC50 (HIV-1IIIB(H9 cells); [2]): 35.87 µg/mL (≈ 94.6 µM)
6 | COc1ccccc1NC(=O)c1c(N(C)C)cccc1S(=O)(=O)c1ccc([N+](=O)[O-])cc1 [compound 58, 2-(dimethylamino)-N-(2-methoxyphenyl)-6-((4-nitrophenyl)sulfonyl)benzamide] | 103 (≈ 226 µM) | 100 (≈ 219 µM) | –
7 | CNc1cccc(S(=O)(=O)c2ccc([N+](=O)[O-])cc2)c1C(=O)Nc1ccccc1OC [compound 59, N-(2-methoxyphenyl)-2-(methylamino)-6-((4-nitrophenyl)sulfonyl)benzamide] | 123 (≈ 278 µM) | 63.7 (≈ 144 µM) | –
8 | COc1ccccc1NC(=O)c1c(NS(=O)(=O)c2ccccc2)cccc1S(=O)(=O)c1ccc([N+](=O)[O-])cc1 [compound 61, N-(2-methoxyphenyl)-2-((4-nitrophenyl)sulfonyl)-6-(phenylsulfonamido)benzamide] | > 200 | 46.9 (≈ 82.7 µM) | –
9 | COc1ccccc1NC(=O)c1c(NCP(=O)(OC(C)C)OC(C)C)cccc1Sc1ccc([N+](=O)[O-])cc1 [compound 65, diisopropyl(((2-((2-methoxyphenyl)carbamoyl)-3-((4-nitro-phenyl)thio)phenyl)amino)methyl)phosphonate] | – | – | TI (HIV-1IIIB(H9 cells); H9 cells): 0.13; EC50 (HIV-1IIIB(H9 cells); Human immunodeficiency virus 1, H9): > 200 µg/mL; TI (HIV-1IIIB (C8166 cells); C8166 cells): 0.18; EC50 (HIV-1IIIB (C8166 cells); Human immunodeficiency virus 1, C8166): 106 µg/mL (≈ 184 µM)
10 | COc1ccccc1NC(=O)c1c(NC(=O)CN)cccc1S(=O)(=O)c1ccc([N+](=O)[O-])cc1.Cl.Cl [compound 67, 2-(2-aminoacetamido)-N-(2-methoxyphenyl)-6-((4-nitrophenyl)sulfonyl)benzamide hydrochloride hydrochloride] | 0.12 | 0.43 | TI (HIV-2 ROD): 161.78; TI (HIV-1IIIB(H9 cells); H9 cells): 790.58; safety at a high dose (Acute toxicity test): very safe; acute toxicity test (Acute toxicity test): no abnormal phenomenon occurred; max blood concentration of 46 [1]: 21.662 µg/mL; TI (HIV-2 CBL-20): 87.82; TI (HIV-1IIIB (C8166 cells); C8166 cells): 388.04
11 | COc1ccccc1NC(=O)c1c(NC(=O)C(N)CCCCN)cccc1Sc1ccc([N+](=O)[O-])cc1.Cl (centres unmarked) [compound 68, 2-(2,6-diaminohexanamido)-N-(2-methoxyphenyl)-6-((4-nitrophenyl)thio)benzamide hydrochloride] | 2.38 | 0.94 | TI (HIV-1IIIB(H9 cells); H9 cells): 37.85; TI (HIV-1IIIB (C8166 cells); C8166 cells): 122.45
12 | Nc1cccc(Sc2ccc([N+](=O)[O-])cc2)c1C(=O)Nc1ccccc1I [compound 71, 2-amino-N-(2-iodophenyl)-6-((4-nitrophenyl)thio)benzamide] | > 200 | 61.4 (≈ 125 µM) | –
13 | Nc1cccc(S(=O)(=O)c2ccc([N+](=O)[O-])cc2)c1C(=O)Nc1ccccc1I [compound 72, 2-amino-N-(2-iodophenyl)-6-((4-nitrophenyl)sulfonyl)benzamide] | 193 (≈ 368 µM) | 16.2 (≈ 30.9 µM) | –
14 | COc1ccccc1NC(=O)c1c(N)cccc1Sc1ccc(C(=O)O)cc1 [compound 76, 4-((3-amino-2-((2-methoxyphenyl)carbamoyl)phenyl)thio)benzoic acid] | 100 (≈ 254 µM) | 92 (≈ 233 µM) | –
15 | COc1ccccc1NC(=O)c1c(N)cccc1S(=O)(=O)c1ccc(C(=O)O)cc1 [compound 77, 4-((3-amino-2-((2-methoxyphenyl)carbamoyl)phenyl)sulfonyl)benzoic acid] | > 200 | > 200 | –
16 | COc1ccccc1NC(=O)c1c(NCCN)cccc1Sc1ccc([N+](=O)[O-])cc1 [compound 78, 2-((2-aminoethyl)amino)-N-(2-methoxyphenyl)-6-((4-nitrophenyl)thio)benzamide] | 19.9 (≈ 45.4 µM) | 16.9 (≈ 38.6 µM) | –
17 | COc1ccccc1NC(=O)c1c(NCC(N)=O)cccc1Sc1ccc([N+](=O)[O-])cc1 [compound 82, 2-((2-amino-2-oxoethyl)amino)-N-(2-methoxyphenyl)-6-((4-nitrophenyl)thio)benzamide] | > 200 | > 200 | –
18 | COc1ccccc1NC(=O)c1c(NC(=O)C(N)Cc2ccccc2)cccc1S(=O)(=O)c1ccc([N+](=O)[O-])cc1 (centres unmarked) [compound 83, 2-(2-amino-3-phenylpropanamido)-N-(2-methoxyphenyl)-6-((4-nitrophenyl)sulfonyl)benzamide] | 0.15 (≈ 0.261 µM) | 0.45 (≈ 0.783 µM) | –
